≈ marks a conversion by molar mass, not a printed value. Where “and” joins values, the source holds several entries; their conditions need not be identical. Equal entries are not always repeated. Where two headings read alike, the source gives them in different places.
Assays:
[1] = Human dose prediction with the PK Tool; settings: for human single oral dose prediction: PK Tool, predicted plasma conc at 24 h 7 fold above calculated adult worm blood potency
Text: • We assume that the plasma concentration achieved in mouse sufficient to kill worms is the same as the plasma concentration we need to achieve in humans to see the same effect. A component element is an assumption that the mechanism of S. mansoni worm reduction in mouse and human are the same. • We assume that allometric scaling can be used to estimate human clearance based on mouse clearance. One factor that would make this assumption unsafe is if the clearance mechanisms and rates for our series in mouse and human were different. Fortunately, in vivo clearance correlates well with metabolic stability calculated from in vitro mouse hepatocyte measurements (Fig 7A). In vitro stability estimates in mouse and human hepatocytes are also fairly well correlated (Fig 7B).
Estimates of dose prediction in human were made using the PK Tool. A simple estimate of an effective human dose for LSHTM-3520 can be made by making the assumption that a plasma concentration of 2,000 ng/mL 24 h after oral administration (the same as that achieved in Fig 6B) would give sufficient clinical efficacy. […] To design compounds with a lower predicted human dose we pursued two strategies, one to improve potency by optimisation of the core and substituents, the other to decrease clearance through blocking positions we thought likely to be vulnerable to metabolic enzymes and/or conformational restriction.
Assuming linear kinetics the plasma levels scaled from the low-dose oral PK experiment (2.5 mg/kg) for LSHTM-3520 (8 ng/mL) after 24 h would be 160 ng/mL from […] and 640 ng/mL at […].

[2] = Plasma protein binding in mouse plasma at 10 uM, equilibrium dialysis; format: in vitro ADME; settings: for recovery at 6 h, 10 µM: mouse, mouse plasma, pH 7.4
Description: (§1) Each experiment was performed in duplicate for the compound being tested. A working solution of compound was prepared from 10 μL of 10 mM solution in DMSO + 190 μL 40:60 MeCN:Water. A Total solution was prepared from 12 μL of working solution + 588 μL plasma (compound conc: 10 μM, DMSO: 0.1%, ACN:0.76%). In an equilibrium dialysis chamber, Total solution (200 μL) was added to the plasma chamber and PBS pH 7.4 (350 μL) was added to the buffer chamber. The chamber was then incubated at 37°C for 6 h with constant shaking at 400 rpm (Thermomixer comfort, Eppendorf). Aliquots were removed from both plasma and buffer chambers and the following test samples prepared: Blank: blank Plasma (20 μL) + blank buffer (60 μL), Buffer: blank plasma (20 μL) + test buffer (60 μL), Plasma: test plasma (20 μL) + blank buffer (60 μL), Total: total sample (20 μL) + blank buffer (60 μL). Ice-cold acetonitrile (160 μL), containing a suitable standard was added to all samples, they were shaken vigorously and centrifuged at 4,000 rpm for 20 min at 15°C. Supernatant (110 μL) from each sample was diluted with water (110 μL) and the sample analysed by LC-MS/MS.
(§2) % Free = 100 × (AREA in buffer × dilution factor)/(AREA in Plasma × dilution factor)
(§3) % Recovery = 100 ×[(Avg AREA in buffer × dilution factor) + (Avg AREA in Plasma × dilution factor)] / (Avg AREA in Total × dilution factor)

[3] = Metabolic stability in mouse hepatocytes; format: in vitro ADME; settings: hepatocytes (suspension); for remaining at 0.5 h, 1 µM: pH 7.4, 30 min incubation, read-out: Mouse hepatocyte % remaining at 30 min; for remaining at 1.5 h, 1 µM: pH 7.4, 90 min incubation, read-out: Mouse hepatocyte % remaining at 90 min
Description: (§4) 100 μM compound stock solution was prepared from 5 μL of 4 mM stock in DMSO + 195 μL MeCN. Working solution (2 μM compound) was prepared using 10 μL of 100 μM stock + 490 μL buffer pH 7.4 (KHB supplemented with CaCl2, NaHCO3, HEPES, fructose, glycine; pH 7.4).
(§5) Working solution (25 μL, 2 μM) was added in duplicate to wells in a 0.5 mL per well, 96 well plate which was preincubated to reach 37°C. Hepatocyte suspension (25 μL) was added to each plate, and the plate incubated (37°C, 95% relative humidity with 5% CO2 supply) under gentle mixing (Thermomixer @300 rpm). After designated time periods, ice-cold MeCN (250 μL) was added with a suitable standard. For T = 0 min, ice-cold MeCN (250 μL) with suitable standard was added to the working solution (2 μM) and hepatocyte suspension (25 μL) added. The plates for each time point were shaken, sonicated for 5 mins and kept at 4°C until the final plate was processed. The plates were centrifuged at 4,000 rpm for 20 min, supernatant (110 μL) was mixed with water (110 μL) and the samples analysed using LC-MS/MS.

[4] = Metabolic stability in human hepatocytes; format: in vitro ADME; settings: hepatocytes (suspension); for remaining at 0.5 h, 1 µM: pH 7.4, 30 min incubation, read-out: Human hepatocyte % remaining at 30 min; for remaining at 1.5 h, 1 µM: pH 7.4, 90 min incubation, read-out: Human hepatocyte % remaining at 90 min
Description: as §4, §5

Mouse pharmacokinetics = format: in vivo; settings: for Clobs / AUC(0-inf) / Vd / half-life: 0.5 mg/kg iv, in a mixture of 5 compounds; for scaled plasma level, fold above the calculated whole blood IC50: 24 h; for Plasma conc @ 24 h after oral dose / bioavailability: mixture of 5 compounds; for AUC(0-inf) / Vd / bioavailability / half-life / concentration at 24 h: male, Swiss albino, plasma; for Vd: read-out: Vss; for bioavailability: 2.5 mg/kg oral, calculated values > 100% shown as 100; for half-life: iv, sampled over 24 h; for concentration at 24 h: oral
Kinetic solubility = format: physicochemical
Text: Table 4 in vitro, physicochemical and in vivo properties of compounds pictured in Fig 10. | column: Measured physicochemical properties / Kinetic solubility, pH 7.4 (uM); Measured physicochemical properties / Kinetic solubility, FaSSIF (uM); Measured physicochemical properties / Kinetic solubility, FeSSIF (uM)

[5] = Plasma protein binding in human plasma at 10 uM, equilibrium dialysis; format: in vitro ADME; settings: for recovery at 6 h, 10 µM: human, human plasma, pH 7.4
Description: as §1, §2, §3

[6] = pH 7.4, read-out: Kinetic solubility, pH 7.4
[7] = FaSSIF, pH 6.5, read-out: Kinetic solubility, FaSSIF
[8] = FeSSIF, pH 5, read-out: Kinetic solubility, FeSSIF
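Throughout, for Clobs: three mice per experiment, dosed in 10% DMSO with 50 mM Na2HPO4 buffer plus Tween-80, plasma levels quantified by LC-MS against a calibration line prepared in blank matrix.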
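Throughout, for Plasma conc @ 24 h after oral dose: three mice per experiment, dosed in 10% DMSO with 50 mM Na2HPO4 buffer plus Tween-80, plasma levels quantified by LC-MS against a calibration line prepared in blank matrix.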
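Throughout, for Vss: three mice per experiment, dosed in 10% DMSO with 50 mM Na2HPO4 buffer plus Tween-80, plasma levels quantified by LC-MS against a calibration line prepared in blank matrix.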
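Throughout, for scaled plasma level, fold above the calculated whole blood IC50: three mice per experiment, dosed in 10% DMSO with 50 mM Na2HPO4 buffer plus Tween-80, plasma levels quantified by LC-MS against a calibration line prepared in blank matrix.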

Row | Structure (SMILES) | human single oral dose prediction [1] [mg/kg] | Mouse plasma protein %binding [2] [%] | recovery at 6 h, 10 µM [2] [%] | remaining at 0.5 h, 1 µM [3] [%] | remaining at 1.5 h, 1 µM [3] [%] | remaining at 0.5 h, 1 µM [4] [%] | AUC(0-inf) (Mouse pharmacokinetics) [ng·h/mL] | Vd (Mouse pharmacokinetics) [L/kg] | bioavailability (Mouse pharmacokinetics) [%] | half-life (Mouse pharmacokinetics; 0.5 mg/kg) [h] | solubility kinetic at 24 h (Kinetic solubility; [6]) [µM] | Human plasma protein %binding [5] [%] | recovery at 6 h, 10 µM [5] [%] | remaining at 1.5 h, 1 µM [4] [%] | Clobs (Mouse pharmacokinetics) [mL/min/kg] | solubility kinetic at 24 h (Kinetic solubility; [7]) [µM] | solubility kinetic at 24 h (Kinetic solubility; [8]) [µM] | other results
1 | CC(C)c1nc2cnc(-c3ccc(F)c(C(F)(F)F)c3)cn2c1-c1c(F)cc(O)cc1F [LSHTM-3520] | 25 | 99.97 | 91.5 | 65 | 44 | 52 | 500 | 7.1 | 50 | 7 | 12.7 (≈ 5.73 µg/mL) | 99.9895 | 97.1 | – | – | – | – | predicted single human oral dose (simple estimate) ([1]; target 2,000 ng/mL at 24 h, allometric scaling from mouse, exponent 0.75): 48 mg/kg; half-life at 1 µM ([3]; pH 7.4, calculated from % remaining): 1.25 h; Clobs (Mouse pharmacokinetics; 0.5 mg/kg): 18.3 mL/min/kg and 18 mL/min/kg; scaled plasma level, fold above the calculated whole blood IC50 (Mouse pharmacokinetics; 50 mg/mL (so in the source)): 1.3 fold; scaled plasma level, fold above the calculated whole blood IC50 (Mouse pharmacokinetics; 200 mg/mL (so in the source)): 5.3 fold; Plasma conc @ 24 h after oral dose (Mouse pharmacokinetics; […]): 8.1 ng/mL; concentration at 24 h (Mouse pharmacokinetics; 50 mg/mL, scaled from […] to 50 mg/mL (so in the source), linear kinetics assumed, read-out: plasma level after 24 h scaled from the low-dose oral PK experiment): 160 ng/mL; concentration at 24 h (Mouse pharmacokinetics; 200 mg/mL, scaled from […] to 200 mg/mL (so in the source), linear kinetics assumed, read-out: plasma level after 24 h scaled from the low-dose oral PK experiment): 640 ng/mL
2 | CC(C)c1nc2cnc(-c3ccc(F)c(C(F)(F)F)c3)cn2c1-c1ccc2[nH]ncc2c1F [LSHTM-3604] | 6 | 99.9858 | 94.5 | 89 | 80 | 99 | 1900 | 3.4 | 60 | 10.5 | 0.834 (≈ 0.381 µg/mL) | 99.9973 | 92.4 | 98 | 4.33 | – | – | scaled plasma level, fold above the calculated whole blood IC50 (Mouse pharmacokinetics; efficacy dose (dose not given)): 9.4 fold; concentration at 24 h (Mouse pharmacokinetics; plasma level after 24 h scaled from […] dose, scaled to the efficacy dose (dose not given), read-out: plasma level after 24 h scaled from 2.5 mg/kg dose): 1430 ng/mL; solubility kinetic (Kinetic solubility; FaSSIF, read-out: Kinetic solubility, FaSSIF): 200 µM (≈ 91.5 µg/mL); solubility kinetic (Kinetic solubility; FeSSIF, read-out: Kinetic solubility, FeSSIF): 200 µM (≈ 91.5 µg/mL)
3 | Fc1c(-c2c(C(F)(F)F)nc3cnc(-c4cccc(C(F)(F)C(F)(F)F)c4)cn23)ccc2[nH]ncc12 [LSHTM-3608] | 2.5 | 99.9195 | 80.8 | – | 88 | – | 6200 | 4 | 100 | 37.1 | 0.704 (≈ 0.363 µg/mL) | 100 | 97.8 | 98 | 1.5 | 200 (≈ 103 µg/mL) | 196 (≈ 101 µg/mL) | –
4 | Fc1ccc(-c2cn3c(-c4ccc5[nH]ncc5c4F)c(C(F)(F)F)nc3cn2)cc1C(F)(F)F [LSHTM-3642, 3-(4-fluoro-1H-indazol-5-yl)-6-(4-fluoro-3-(trifluoromethyl)phenyl)-2-(trifluoromethyl)imidazo[1,2-a]pyrazine] | 20 | 99.9915 | 92.1 | – | 90 | – | 5500 | 8.7 | 83 | – | 0.854 (≈ 0.413 µg/mL) | 99.9895 | 97.4 | 105 | 2.17 | 196 (≈ 94.7 µg/mL) | 197 (≈ 95.2 µg/mL) | Plasma conc @ 24 h after oral dose (Mouse pharmacokinetics): 227 ng/mL
5 | Fc1ccc(-c2cn3c(-c4ccc5[nH]ncc5c4F)c(C(F)(F)F)nc3cn2)cc1C(F)(F)C(F)(F)F [LSHTM-3645] | 3.5 | 100 | 96.9 | – | 94 | – | 2400 | 6.4 | 100 | 23.4 | 0.264 (≈ 0.141 µg/mL) | 100 | 85.8 | 105 | 3.5 | 199 (≈ 106 µg/mL) | 200 (≈ 107 µg/mL) | –

From publication PMC8321398, “The discovery of a novel series of compounds with single-dose efficacy against juvenile and adult Schistosoma species” (PLoS Neglected Tropical Diseases, 2021)
